Values quoted from earlier work as cited in patent publication US20160346224A1, “COMPOSITIONS AND METHODS FOR REDUCING VISUAL LOSS” (Edge Therapeutics, Inc., priority 2015, published 2016).
No end group written: not given here.

Columns and labels:
[1] = tested on: K+ and Na+ currents, and L, P/Q and T-type calcium currents
[2] = tested on: R-type current in preparations of the neuronal cell body, retinal ganglion cells and hippocampal pyramidal cells
N-type calcium current = N-type calcium current (Homo sapiens, UniProt Q00975); conditions: at 300 nM to 500 nM
N-type calcium current, sequence (Q00975 whole entry): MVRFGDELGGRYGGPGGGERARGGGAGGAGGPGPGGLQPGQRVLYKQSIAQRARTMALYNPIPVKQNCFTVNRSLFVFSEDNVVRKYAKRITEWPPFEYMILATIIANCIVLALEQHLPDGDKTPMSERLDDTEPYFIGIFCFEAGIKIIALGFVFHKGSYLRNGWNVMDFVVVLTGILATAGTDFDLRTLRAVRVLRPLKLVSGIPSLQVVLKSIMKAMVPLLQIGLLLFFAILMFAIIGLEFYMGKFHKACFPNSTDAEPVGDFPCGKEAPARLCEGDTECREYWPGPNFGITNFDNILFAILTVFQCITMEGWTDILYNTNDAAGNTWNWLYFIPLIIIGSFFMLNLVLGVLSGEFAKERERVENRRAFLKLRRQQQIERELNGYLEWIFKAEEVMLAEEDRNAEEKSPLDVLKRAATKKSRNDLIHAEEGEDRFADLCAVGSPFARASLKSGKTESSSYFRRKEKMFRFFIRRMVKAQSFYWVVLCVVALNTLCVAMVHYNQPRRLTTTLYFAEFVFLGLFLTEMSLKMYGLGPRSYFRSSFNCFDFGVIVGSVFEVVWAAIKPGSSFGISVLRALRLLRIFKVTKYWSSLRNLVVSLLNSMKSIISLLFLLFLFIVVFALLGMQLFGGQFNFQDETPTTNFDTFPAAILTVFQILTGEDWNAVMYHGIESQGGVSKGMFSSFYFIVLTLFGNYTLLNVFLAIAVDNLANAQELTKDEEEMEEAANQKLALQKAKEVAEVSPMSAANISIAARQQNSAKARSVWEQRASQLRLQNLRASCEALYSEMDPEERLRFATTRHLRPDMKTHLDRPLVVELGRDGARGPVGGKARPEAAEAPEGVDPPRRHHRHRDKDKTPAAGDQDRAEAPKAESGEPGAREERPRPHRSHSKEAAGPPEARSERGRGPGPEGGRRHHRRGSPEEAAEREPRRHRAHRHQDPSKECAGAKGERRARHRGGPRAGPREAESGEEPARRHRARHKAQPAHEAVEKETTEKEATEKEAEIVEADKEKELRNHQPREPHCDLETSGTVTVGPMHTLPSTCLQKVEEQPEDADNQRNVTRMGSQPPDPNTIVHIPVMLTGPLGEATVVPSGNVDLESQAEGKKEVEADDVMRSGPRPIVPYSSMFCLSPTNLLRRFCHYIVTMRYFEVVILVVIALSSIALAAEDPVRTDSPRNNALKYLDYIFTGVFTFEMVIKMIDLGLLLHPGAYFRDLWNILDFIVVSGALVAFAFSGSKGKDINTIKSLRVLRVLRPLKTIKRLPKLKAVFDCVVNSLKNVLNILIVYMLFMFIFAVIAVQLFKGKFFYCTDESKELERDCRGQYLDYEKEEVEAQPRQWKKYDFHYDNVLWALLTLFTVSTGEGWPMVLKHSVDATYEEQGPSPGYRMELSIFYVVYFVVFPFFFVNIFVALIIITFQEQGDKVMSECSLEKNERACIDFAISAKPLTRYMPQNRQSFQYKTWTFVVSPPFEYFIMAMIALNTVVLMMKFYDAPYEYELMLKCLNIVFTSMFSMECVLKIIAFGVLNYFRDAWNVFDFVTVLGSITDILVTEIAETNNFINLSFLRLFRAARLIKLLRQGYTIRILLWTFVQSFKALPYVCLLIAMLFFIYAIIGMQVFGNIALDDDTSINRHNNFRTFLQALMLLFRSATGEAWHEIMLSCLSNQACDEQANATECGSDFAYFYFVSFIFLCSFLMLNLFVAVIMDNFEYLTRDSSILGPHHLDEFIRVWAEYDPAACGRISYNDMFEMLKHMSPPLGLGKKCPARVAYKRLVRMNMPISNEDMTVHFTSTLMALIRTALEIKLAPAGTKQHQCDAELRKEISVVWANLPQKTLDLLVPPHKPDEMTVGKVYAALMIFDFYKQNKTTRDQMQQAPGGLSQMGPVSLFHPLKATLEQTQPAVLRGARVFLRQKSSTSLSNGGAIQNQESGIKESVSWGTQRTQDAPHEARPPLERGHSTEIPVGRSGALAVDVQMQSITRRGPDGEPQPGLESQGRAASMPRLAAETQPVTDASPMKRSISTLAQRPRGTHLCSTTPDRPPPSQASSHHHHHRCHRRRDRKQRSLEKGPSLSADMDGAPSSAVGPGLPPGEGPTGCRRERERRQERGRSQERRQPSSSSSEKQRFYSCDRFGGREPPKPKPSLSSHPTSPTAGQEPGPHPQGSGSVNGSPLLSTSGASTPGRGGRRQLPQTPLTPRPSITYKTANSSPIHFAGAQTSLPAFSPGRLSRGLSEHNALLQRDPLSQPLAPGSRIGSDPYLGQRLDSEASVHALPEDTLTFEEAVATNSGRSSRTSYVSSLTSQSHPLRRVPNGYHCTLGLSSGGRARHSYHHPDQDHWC

[3] = molecular target: T1, R-type calcium current in the neurohypophysial nerve endings (Rattus norvegicus, UniProt Q07652); conditions: at 40 nM concentration
T1 construct: R-type calcium current in the neurohypophysial nerve endings at 40 nM concentration; host or cells: neurohypophysial nerve endings (native tissue preparation)
T1 sequence (Q07652 whole entry): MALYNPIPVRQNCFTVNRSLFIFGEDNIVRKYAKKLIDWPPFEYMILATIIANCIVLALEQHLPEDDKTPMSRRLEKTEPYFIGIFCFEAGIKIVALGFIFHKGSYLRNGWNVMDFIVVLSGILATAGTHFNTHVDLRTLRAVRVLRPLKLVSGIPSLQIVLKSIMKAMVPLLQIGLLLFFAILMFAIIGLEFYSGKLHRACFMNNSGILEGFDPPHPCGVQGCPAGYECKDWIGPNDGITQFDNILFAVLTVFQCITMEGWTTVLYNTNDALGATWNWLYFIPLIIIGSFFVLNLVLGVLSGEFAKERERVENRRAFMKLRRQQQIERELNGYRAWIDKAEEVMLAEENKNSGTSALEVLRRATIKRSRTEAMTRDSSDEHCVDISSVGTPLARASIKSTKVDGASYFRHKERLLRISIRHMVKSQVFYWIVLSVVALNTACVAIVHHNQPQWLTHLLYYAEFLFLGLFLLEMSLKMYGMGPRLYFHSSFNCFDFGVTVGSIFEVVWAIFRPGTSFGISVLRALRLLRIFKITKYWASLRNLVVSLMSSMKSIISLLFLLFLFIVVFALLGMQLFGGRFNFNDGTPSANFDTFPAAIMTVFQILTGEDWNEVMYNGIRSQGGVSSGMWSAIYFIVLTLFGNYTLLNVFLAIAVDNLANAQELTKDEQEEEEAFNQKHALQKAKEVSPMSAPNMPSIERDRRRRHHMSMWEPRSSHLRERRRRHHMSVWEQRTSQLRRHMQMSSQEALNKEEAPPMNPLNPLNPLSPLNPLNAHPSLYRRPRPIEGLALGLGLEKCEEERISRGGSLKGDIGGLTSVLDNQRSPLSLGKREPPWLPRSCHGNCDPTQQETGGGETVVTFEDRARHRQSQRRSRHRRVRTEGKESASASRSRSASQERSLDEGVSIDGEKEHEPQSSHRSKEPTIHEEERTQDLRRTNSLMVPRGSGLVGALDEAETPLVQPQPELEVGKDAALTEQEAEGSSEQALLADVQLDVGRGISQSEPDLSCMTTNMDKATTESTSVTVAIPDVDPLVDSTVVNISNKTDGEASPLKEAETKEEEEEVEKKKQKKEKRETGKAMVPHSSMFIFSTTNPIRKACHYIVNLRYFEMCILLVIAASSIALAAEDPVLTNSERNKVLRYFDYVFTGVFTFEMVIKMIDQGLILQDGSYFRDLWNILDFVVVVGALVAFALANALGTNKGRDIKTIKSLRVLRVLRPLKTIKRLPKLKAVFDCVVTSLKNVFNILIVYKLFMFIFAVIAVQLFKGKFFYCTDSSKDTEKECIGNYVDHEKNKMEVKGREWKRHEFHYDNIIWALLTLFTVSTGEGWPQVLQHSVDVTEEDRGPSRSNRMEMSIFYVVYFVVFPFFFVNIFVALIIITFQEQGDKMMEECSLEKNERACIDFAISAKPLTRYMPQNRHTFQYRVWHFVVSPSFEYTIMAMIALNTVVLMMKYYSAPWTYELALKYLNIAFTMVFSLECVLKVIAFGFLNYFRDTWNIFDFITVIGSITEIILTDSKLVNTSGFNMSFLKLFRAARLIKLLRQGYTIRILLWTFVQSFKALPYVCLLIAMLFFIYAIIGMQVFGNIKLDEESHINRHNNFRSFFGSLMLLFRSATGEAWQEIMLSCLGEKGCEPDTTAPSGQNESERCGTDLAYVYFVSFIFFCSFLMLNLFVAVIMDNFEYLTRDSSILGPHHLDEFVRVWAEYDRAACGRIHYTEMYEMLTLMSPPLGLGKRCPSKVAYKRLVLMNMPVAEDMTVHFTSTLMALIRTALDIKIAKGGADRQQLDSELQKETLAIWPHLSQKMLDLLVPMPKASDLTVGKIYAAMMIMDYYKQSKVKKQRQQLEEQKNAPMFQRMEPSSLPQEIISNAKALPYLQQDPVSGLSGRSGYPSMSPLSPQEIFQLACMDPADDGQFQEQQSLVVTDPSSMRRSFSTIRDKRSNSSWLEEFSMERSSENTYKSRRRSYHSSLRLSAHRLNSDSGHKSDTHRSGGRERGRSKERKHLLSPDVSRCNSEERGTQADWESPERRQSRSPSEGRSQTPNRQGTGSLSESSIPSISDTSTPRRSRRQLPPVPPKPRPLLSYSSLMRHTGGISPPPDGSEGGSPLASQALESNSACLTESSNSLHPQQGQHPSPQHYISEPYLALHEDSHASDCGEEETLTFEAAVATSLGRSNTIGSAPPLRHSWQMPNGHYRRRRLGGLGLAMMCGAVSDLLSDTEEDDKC

Which “effect on K+ and Na+ currents, and L, P/Q and T-type calcium currents” value [1] does the source give for “SNX-482: toxin from the tarantula Hysterocrates gigas, a 41 amino acid residue peptide with 3 disulfide linkages; putative R-type selective antagonist (GVDKAGCRYMFGGCSVNDDCCPRLGCHSLFSYCAWDLTFSD; disulfide (positions not given here); also: 3 disulfide linkages, pairings not given here; UniProt P56854 1-41, looked up)” here?
The value was “no effect”.

And the “effect on R-type current” value [2]?
The value was “no significant effect”.

What about the “block of N-type calcium current” value (N-type calcium current) of the same substance?
The value was 30-50%.

And the “block of R-type calcium current” value [3]?
Its value is “blocks”.
